Data taken from patent US20260315494A1, “TREATMENT OF BREAST TISSUE” (Havah Therapeutics Pty Ltd, priority 2023, published 2026).
“And” between values parts separate entries of the source, which are not always exact repeats. Identical values can stand only once.

How the values were obtained:
5α-reductase = settings: increasing DHT in the breast, McNamara 2014; cited from earlier work
androgen receptor (AR) = settings: tumoural DHT from 1 nM up to 10 nM, Hickey 2021; cited from earlier work
human MYC = test: Western blot of MYC in breast cancer explants treated with DHT; assay type: cell-based; settings: for MYC Western blot ratio to beta-Actin / MYC Western blot ratio to beta-Actin, average: 24 h
Procedure: (§1) To evaluate the effect of DHT on breast cancer tissue, 3 primary tumours were examined in the presence of a low anastrozole level of 5 nM employing a modification of the method described by Jankovic-Karasoulos T. et al., 2008.
(§2) The 3 explant invasive breast carcinomas were examined for expression of mTOR and c-Myc and response to exposure to DHT by Western blotting. […] The band density was measured by densitometry, using Image Master VDS and Image Quant Analysis Software (Amersham Pharmacia Biotech, Hong Kong). The relative protein levels of mTOR or MYC and b-actin in the original total protein lysate from the breast preparations were obtained. mTOR or MYC protein expression was normalized to beta-actin protein expression. Immunizing host antibodies were produced with a synthetic peptide derived from the sequence of human mTOR or MYC, purified by peptide affinity chromatography and confirmed using control peptides. The results of the Western blot analysis for mTOR or MYC proteins in the 3 explant samples at baseline and after 24 hours of culture are shown in Table 3 and Table 4 for mTOR or MYC respectively. Cell lysates were immunoblotted with antibodies to mTOR or MYC. The experiment was performed twice with similar results. Data are expressed relative to beta-actin.

aromatase = settings: increasing DHT in the breast, Perel; cited from earlier work
AR/GATA3 = settings: Hosseinzadeh 2024; cited from earlier work
human mTOR = test: Western blot of mTOR in breast cancer explants treated with DHT; assay type: cell-based; settings: for mTOR Western blot ratio to beta-Actin, average: average of 3 patients; for mTOR Western blot ratio to beta-Actin, average / mTOR Western blot ratio to beta-Actin: 5 nM anastrozole, 24 h; for mTOR Western blot ratio to beta-Actin: individual patient
Procedure: as §1, §2

[1] = Single-dose pharmacokinetics of T+Ai pellet implant (80 mg testosterone + 4 mg anastrozole, subcutaneous); settings: for concentration at 1 h: 1 h post-dose; for concentration at 2 h: 2 h post-dose; for concentration at 4 h: 4 h post-dose; for concentration at 8 h: 8 h post-dose; for concentration at 12 h: 12 h post-dose; for concentration at 24 h: 24 h post-dose; for concentration at 72 h: 72 h post-dose; for concentration at 1680 h: 1680 h post-dose; for concentration at 2016 h: 2016 h post-dose
Procedure: The premenopausal women were aged between 35 and 55 years of age with a BMI range of 20-30 kg/m^2. […] The implant was intended to be left in situ and was expected to be almost completely absorbed within three months following insertion.
A total of 11 subjects were dosed with the implant and included in the safety analysis set. All 11 subjects were included in the pharmacokinetics (PK) analysis set.
(NB: the sample collection time point at 6 hours post-dose was added for the third and subsequent subject and so serum measurements were not determined for the first two subjects as noted below).
Patients seeking treatment with the T+Ai for reduction in high MBD were eligible for the study. Following successful screening, subjects attended the Wellend Health Clinic for dosing. The trial was designed to dose all subjects while in the luteal phase of their menstrual cycle to avoid the highly changing hormonal environment of the follicular phase. Following insertion of the implant, PK blood sampling was carried out for a duration of three months (see below). Briefly, samples were taken repeatedly on the day of dosing, daily during the first week, weekly for the next four weeks and every second week during the last eight weeks of a total sampling period of three months.
The sampling schedule was revised with the addition of one blood sample (at 6 hours post-dose as discussed above), and no adjustment of the timing of existing time points was made. The duration of sampling was not extended.
Following dosing on Day 1, blood samples were taken pre-dose (within one hour of dosing) and at 1, 2, 4, 6, 8 and 12 hours. Participants returned for a blood sample to be taken at 9 am in the morning on Days 2, 3, 4, 5, 8, 15, 22, 29, 43, 57, 71 and 85.

PCa cells = settings: cited from earlier work
[2] = system: endogenous AR pathways / ER-mediated transcriptional activity; settings: human explant tissue and breast cancer cell lines; cited from earlier work
CRPC = settings: with a CDK4/6 inhibitor, Han 2022; cited from earlier work
breast tissue = settings: high dose androgen (testosterone), Raths 2023; cited from earlier work
breast = settings: injected prior to breast cancer surgery; cited from earlier work
[3] = on the basis of the present results
[4] = human, in vivo, sc, 80 mg, Measured serum testosterone, GeoMean, geometric mean
[5] = human, in vivo, sc, 80 mg, Measured serum testosterone, mean
[6] = human, in vivo, sc, 80 mg, Measured serum testosterone, median

## C[C@]12CCC(=O)C[C@@H]1CC[C@@H]1[C@@H]2CC[C@]2(C)[C@@H](O)CC[C@@H]12 [DHT, 5α-dihydrotestosterone]
5α-reductase
  5α-reductase in breast tissue: up regulation of 5α-reductase
Androgen receptor (AR)
  AR tumour suppressor induction: can induce androgen receptor (AR) to become a tumour suppressor of estrogen receptor (ER) positive breast cancer
Human MYC; 0.1 nM DHT
  Myc expression in words: markedly elevated
  suppression of c-Myc: unable to suppress c-Myc
Human MYC; 0.1 nM DHT, individual patient, 5 nM anastrozole
  MYC Western blot ratio to beta-Actin: 1.01 and 1.23
Human MYC; 1 nM DHT
  Myc expression in words: barely discernable
Human MYC; 1 nM DHT, individual patient, 5 nM anastrozole
  MYC Western blot ratio to beta-Actin: 0.02 and 0.06
Human MYC; 10 nM DHT
  Myc expression in words: essentially not detected
Human MYC; 10 nM DHT, individual patient, 5 nM anastrozole
  MYC Western blot ratio to beta-Actin: 0.05 and 0.04
Human MYC; 0.0001 µM
  MYC Western blot ratio to beta-Actin: 0.39
  MYC Western blot ratio to beta-Actin, average: 1.01
Human MYC; 0.001 µM
  MYC Western blot ratio to beta-Actin: 0.04
  MYC Western blot ratio to beta-Actin, average: 0.04
Human MYC; 0.01 µM
  MYC Western blot ratio to beta-Actin: 0.03
  MYC Western blot ratio to beta-Actin, average: 0.04
Human MYC; intra-tumoural DHT from 1 to 10 nM
  suppression of c-Myc: results in suppression of c-Myc
Human MYC; [3]
  DHT concentration required for suppression of cMyc: at least 1 nM
aromatase
  aromatase in breast tissue: down regulation of aromatase
AR/GATA3
  AR/GATA3 binding: induces AR/GATA3 binding
Human mTOR; 0.1 nM DHT
  mTOR expression in words: markedly elevated
  mTOR Western blot ratio to beta-Actin, average: 1.01
  mTOR Western blot ratio to beta-Actin: 0.81 and 1.01 and 1.23
Human mTOR; 1 nM DHT
  mTOR expression in words: barely discernable
  mTOR Western blot ratio to beta-Actin, average: 0.04
  mTOR Western blot ratio to beta-Actin: 0.04 and 0.02 and 0.06
Human mTOR; 10 nM DHT
  mTOR expression in words: essentially not detected
  mTOR Western blot ratio to beta-Actin, average: 0.04
  mTOR Western blot ratio to beta-Actin: 0.03 and 0.05 and 0.04
Human mTOR; [3]
  DHT concentration required to inhibit induction of mTOR activity: at least 1 nM
[1]; most samples
  serum DHT: not measurable in most samples
PCa cells; elevated DHT levels
  c-Myc expression associated with AR dimer: reduction in c-Myc expression
PCa cells; low level DHT
  mTOR activity associated with AR monomer: elevated mTOR activity
[2]
  ER-mediated transcriptional activity: can activate endogenous AR pathways to inhibit ER-mediated transcriptional activity

## C[C@]12CC[C@H]3[C@@H](CCC4=CC(=O)CC[C@@]43C)[C@@H]1CC[C@@H]2O [Testosterone, testosterone]
[1]; 12 weeks post-dose, 120960 min
  average serum testosterone concentration at 12 weeks: 0.8 ng/mL
[1]; all subjects, 12 weeks
  increase in serum testosterone compared with baseline: sustained in all subjects at 12 weeks
[1]; baseline, before implant
  average serum testosterone at baseline: 0.2 ng/mL
[1]; geometric mean, pre-dose
  Measured serum testosterone, GeoMean: 0.19 ng/mL
[1]; human, in vivo, sc, 80 mg
  Tmax: 6 to 12 h
[1]; [4]
  concentration at 1 h: 0.49 ng/mL
  concentration at 2 h: 0.6 ng/mL
  concentration at 4 h: 0.94 ng/mL
  concentration at 8 h: 3.29 ng/mL
  concentration at 12 h: 3.36 ng/mL
  concentration at 24 h: 2.39 ng/mL
  concentration at 72 h: 1.63 ng/mL
  concentration at 1680 h: 0.99 ng/mL
[1]; human, in vivo, sc, 80 mg, Measured serum testosterone, GeoMean, geometric mean, 6 h post-dose
  concentration at 6 h: 2.53 ng/mL
[1]; human, in vivo, sc, 80 mg, Measured serum testosterone, individual subject
  concentration at 1680 h: 0.791 ng/mL
[1]; [5]
  concentration at 1 h: 0.55 ng/mL
  concentration at 2 h: 0.73 ng/mL
  concentration at 4 h: 1.43 ng/mL
  concentration at 8 h: 3.55 ng/mL
  concentration at 12 h: 3.43 ng/mL
  concentration at 24 h: 2.45 ng/mL
  concentration at 72 h: 1.73 ng/mL
  concentration at 1680 h: 1 ng/mL
  concentration at 2016 h: 0.83 ng/mL
[1]; human, in vivo, sc, 80 mg, Measured serum testosterone, mean, 48 h post-dose
  concentration at 48 h: 1.83 ng/mL
[1]; human, in vivo, sc, 80 mg, Measured serum testosterone, mean, 168 h post-dose
  concentration at 168 h: 1.53 ng/mL
[1]; human, in vivo, sc, 80 mg, Measured serum testosterone, mean, 504 h post-dose
  concentration at 504 h: 2.26 ng/mL
[1]; human, in vivo, sc, 80 mg, Measured serum testosterone, mean, 1344 h post-dose
  concentration at 1344 h: 1.25 ng/mL
[1]; [6]
  concentration at 1 h: 0.47 ng/mL
  concentration at 2 h: 0.51 ng/mL
  concentration at 4 h: 0.92 ng/mL
  concentration at 1680 h: 1 ng/mL
  concentration at 2016 h: 0.85 ng/mL
[1]; human, in vivo, sc, 80 mg, Measured serum testosterone, median, 1008 h post-dose
  concentration at 1008 h: 1.4 ng/mL
[1]; mean, pre-dose
  Measured serum testosterone, mean: 0.21 ng/mL
[1]; median, pre-dose
  Measured serum testosterone, median: 0.19 ng/mL
[1]; serum
  average Cmax, serum testosterone: 4.1 ng/mL
[1]; serum, post-dose
  median Tmax for serum testosterone: 8 h
CRPC
  efficacy of high-testosterone treatment with CDK4/6 inhibitor: enhanced by a CDK4/6 inhibitor
Breast tissue
  breast ductal structures: breast ductal structures shrunk

## C[C@]12CCC(=O)C[C@@H]1CC[C@@H]1[C@@H]2CC[C@]2(C)[C@@H](O)CC[C@@H]12 [radioactive DHT]
breast
  accumulation of radioactive DHT: initially accumulated in the fat of the breast then strongly accumulated in the malignancy
